Laboratory results as given in article PMC12951562, “SH2scan: Mapping SH2 Domain-Ligand Binding Selectivity for Inhibitors and Degraders” (Journal of Medicinal Chemistry, 2026).
Read-outs that look alike come from different tables or passages of the source.

What was measured:
Assay in all cases: biochemical
Type in all cases: binding
[1] = molecular target: T1, FRK (Homo sapiens, UniProt P42685); conditions: read-out: percent of DMSO vehicle control; for remaining activity at 10 µM: primary screen
T1 construct: the DNA-tagged SH2 domain concentrations used in this study were <0.1 nM; made in house; host or cells: HEK293 (transient transfection; unpurified extract)

[2] = molecular target: T2, FER (Homo sapiens, UniProt P16591); conditions: for percent of DMSO vehicle control at 10 µM / remaining activity at 10 µM: read-out: percent of DMSO vehicle control; for Kd: dose-response, read-out: KD; for remaining activity at 10 µM: primary screen
T2 construct: the DNA-tagged SH2 domain concentrations used in this study were <0.1 nM; made in house; host or cells: HEK293 (transient transfection; unpurified extract)

[3] = molecular target: T3, VAV2 (Homo sapiens, UniProt P52735); conditions: read-out: percent of DMSO vehicle control
T3 construct: made in house; host or cells: HEK293 (transient transfection), unpurified extract
T3 sequence (P52735 1-878): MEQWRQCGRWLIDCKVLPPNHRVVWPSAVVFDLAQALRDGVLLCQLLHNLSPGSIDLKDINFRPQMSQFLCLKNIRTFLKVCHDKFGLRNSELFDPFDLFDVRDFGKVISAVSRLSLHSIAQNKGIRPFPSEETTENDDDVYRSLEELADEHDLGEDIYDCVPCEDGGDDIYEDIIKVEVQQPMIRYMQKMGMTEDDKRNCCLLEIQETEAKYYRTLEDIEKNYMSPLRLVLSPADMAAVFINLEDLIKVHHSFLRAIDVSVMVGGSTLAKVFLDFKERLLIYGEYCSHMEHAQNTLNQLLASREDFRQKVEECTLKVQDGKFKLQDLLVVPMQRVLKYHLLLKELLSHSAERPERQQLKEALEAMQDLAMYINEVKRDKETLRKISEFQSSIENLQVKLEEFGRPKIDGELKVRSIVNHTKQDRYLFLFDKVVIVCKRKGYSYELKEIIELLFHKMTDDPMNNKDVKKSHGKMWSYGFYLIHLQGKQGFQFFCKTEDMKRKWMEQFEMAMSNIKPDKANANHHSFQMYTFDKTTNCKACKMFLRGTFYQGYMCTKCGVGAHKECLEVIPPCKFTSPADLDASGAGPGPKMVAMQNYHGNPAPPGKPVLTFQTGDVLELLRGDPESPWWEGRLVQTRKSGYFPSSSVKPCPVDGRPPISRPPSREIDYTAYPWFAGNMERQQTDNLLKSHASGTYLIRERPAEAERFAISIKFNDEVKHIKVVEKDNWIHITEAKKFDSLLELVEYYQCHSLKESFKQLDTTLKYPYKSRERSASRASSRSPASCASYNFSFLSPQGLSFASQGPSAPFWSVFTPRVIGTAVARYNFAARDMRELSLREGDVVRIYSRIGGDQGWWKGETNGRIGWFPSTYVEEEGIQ

[4] = molecular target: T4, SHB (Homo sapiens, UniProt Q15464); conditions: for remaining activity at 10 µM: read-out: percent of DMSO vehicle control
T4 construct: made in house; host or cells: HEK293 (transient transfection), unpurified extract

[5] = molecular target: T5, GRB14 (Homo sapiens, UniProt Q14449); conditions: for remaining activity at 10 µM: read-out: percent of DMSO vehicle control
T5 construct: the DNA-tagged SH2 domain concentrations used in this study were <0.1 nM; made in house; host or cells: HEK293 (transient transfection; unpurified extract)
T5 sequence (Q14449 439-535 limits assumed): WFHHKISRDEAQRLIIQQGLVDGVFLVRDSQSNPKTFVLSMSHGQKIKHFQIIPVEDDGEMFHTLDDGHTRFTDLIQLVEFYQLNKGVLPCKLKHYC

[6] = molecular target: T6, FYN (Homo sapiens, UniProt P06241); conditions: read-out: percent of DMSO vehicle control; for remaining activity at 10 µM: primary screen
T6 construct: the DNA-tagged SH2 domain concentrations used in this study were <0.1 nM; made in house; host or cells: HEK293 (transient transfection; unpurified extract)

[7] = molecular target: T7, FGR (Homo sapiens, UniProt P09769); conditions: for remaining activity at 10 µM: read-out: percent of DMSO vehicle control
T7 construct: the DNA-tagged SH2 domain concentrations used in this study were <0.1 nM; made in house; host or cells: HEK293 (transient transfection; unpurified extract)

[8] = molecular target: T8, PLCG1(SH2dom.C-term.) (Homo sapiens, UniProt P19174); conditions: for remaining activity at 10 µM: read-out: percent of DMSO vehicle control; for Kd: dose-response, read-out: KD
T8 construct: SH2dom.C-term. denotes SH2 domain closest to C-terminus of protein; made in house; host or cells: HEK293 (transient transfection, unpurified extract)
T8 sequence (P19174 668-756 limits assumed): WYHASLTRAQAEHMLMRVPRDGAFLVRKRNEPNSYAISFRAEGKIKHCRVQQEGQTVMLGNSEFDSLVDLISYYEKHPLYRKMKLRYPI

[9] = molecular target: T9, PIK3R3(SH2dom.C-term.) (Homo sapiens, UniProt Q92569); conditions: for remaining activity at 10 µM: read-out: percent of DMSO vehicle control; for Kd: dose-response, read-out: KD
T9 construct: SH2dom.C-term. denotes SH2 domain closest to C-terminus of protein; made in house; host or cells: HEK293 (transient transfection, unpurified extract)

[10] = molecular target: T10, CSK (Homo sapiens, UniProt P41240); conditions: for percent of DMSO vehicle control: primary screen, 10 μM
T10 construct: the DNA-tagged SH2 domain concentrations used in this study were <0.1 nM; made in house; host or cells: HEK293 (transient transfection; unpurified extract)
T10 sequence (P41240 82-171 limits assumed): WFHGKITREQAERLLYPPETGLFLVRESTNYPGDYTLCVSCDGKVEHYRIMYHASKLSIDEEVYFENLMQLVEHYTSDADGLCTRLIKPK

[11] = molecular target: T11, RASA1(SH2dom.C-term.) (Homo sapiens, UniProt P20936); conditions: read-out: percent of DMSO vehicle control
T11 construct: SH2dom.C-term. denotes SH2 domain closest to C-terminus of protein; made in house; host or cells: HEK293 (transient transfection, unpurified extract)
T11 sequence (P20936 351-441 limits assumed): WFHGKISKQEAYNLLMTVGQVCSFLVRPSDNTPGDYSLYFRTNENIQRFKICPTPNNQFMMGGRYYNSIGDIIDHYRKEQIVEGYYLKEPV

[12] = molecular target: T12, PIK3R2(SH2dom.N-term.) (Homo sapiens, UniProt O00459); conditions: read-out: percent of DMSO vehicle control
T12 construct: SH2dom.N-term. denotes SH2 domain closest to N-terminus of protein; made in house; host or cells: HEK293 (transient transfection, unpurified extract)

[13] = molecular target: T13, ABL1 (Homo sapiens, UniProt P00519); conditions: for percent of DMSO control binding at 10 µM / remaining activity at 10 µM: read-out: percent of DMSO vehicle control; for KD: dose-response; for remaining activity at 10 µM: primary screen
T13 construct: the DNA-tagged SH2 domain concentrations used in this study were <0.1 nM; made in house; host or cells: HEK293 (transient transfection; unpurified extract)
T13 sequence (P00519 127-217 limits assumed): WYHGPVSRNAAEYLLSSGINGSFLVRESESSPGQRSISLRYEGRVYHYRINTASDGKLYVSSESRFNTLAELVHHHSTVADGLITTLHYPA

T1 sequence (P42685 116-208 limits assumed): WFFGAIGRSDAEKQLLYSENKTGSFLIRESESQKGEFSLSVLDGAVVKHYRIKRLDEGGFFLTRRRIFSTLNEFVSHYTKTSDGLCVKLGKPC
T7 sequence (P09769 144-241 limits assumed): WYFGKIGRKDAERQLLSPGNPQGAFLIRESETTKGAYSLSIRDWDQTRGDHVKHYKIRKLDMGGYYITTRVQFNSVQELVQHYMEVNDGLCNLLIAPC
T6 sequence (P06241 149-246 limits assumed): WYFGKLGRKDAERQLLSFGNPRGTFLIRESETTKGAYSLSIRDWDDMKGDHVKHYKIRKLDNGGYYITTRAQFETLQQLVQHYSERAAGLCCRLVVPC
T2 sequence (P16591 460-550 limits assumed): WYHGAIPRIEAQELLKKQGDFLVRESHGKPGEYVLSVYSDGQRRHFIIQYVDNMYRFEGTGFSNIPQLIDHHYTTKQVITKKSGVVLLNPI
T4 sequence (Q15464 whole entry): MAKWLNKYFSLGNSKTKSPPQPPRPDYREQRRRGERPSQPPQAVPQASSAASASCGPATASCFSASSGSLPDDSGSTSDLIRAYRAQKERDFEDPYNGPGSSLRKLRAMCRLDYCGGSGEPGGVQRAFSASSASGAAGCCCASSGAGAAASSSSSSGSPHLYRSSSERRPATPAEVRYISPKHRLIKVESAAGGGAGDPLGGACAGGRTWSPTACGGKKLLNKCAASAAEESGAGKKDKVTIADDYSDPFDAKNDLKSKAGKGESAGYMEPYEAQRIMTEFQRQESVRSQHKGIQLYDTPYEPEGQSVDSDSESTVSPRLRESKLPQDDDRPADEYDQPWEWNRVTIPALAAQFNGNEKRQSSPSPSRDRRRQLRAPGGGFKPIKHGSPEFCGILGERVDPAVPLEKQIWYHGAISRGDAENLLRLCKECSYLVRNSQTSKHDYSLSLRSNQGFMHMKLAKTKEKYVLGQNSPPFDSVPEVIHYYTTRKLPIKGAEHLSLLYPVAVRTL
T12 sequence (O00459 330-425 limits assumed): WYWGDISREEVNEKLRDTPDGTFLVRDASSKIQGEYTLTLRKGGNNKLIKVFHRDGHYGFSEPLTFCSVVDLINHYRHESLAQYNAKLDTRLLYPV

## NC(=O)CC[C@H](NC(=O)[C@@H]1CC[C@@H]2CCN(C(=O)CCCCCC#Cc3cccc4c3CN(C3CCC(=O)NC3=O)C4=O)C[C@H](NC(=O)c3cc4cc(C(F)(F)P(=O)(O)O)ccc4[nH]3)C(=O)N21)C(=O)NC(c1ccccc1)c1ccccc1 (stereo partly drawn) [SD-36]
[1]
  percent of DMSO vehicle control at 10 µM: 155 ± 4.5%
[2]
  percent of DMSO vehicle control at 10 µM: 74.4 ± 18.6%
[3]
  remaining activity at 10 µM: 117 ± 1.5%
[4]
  remaining activity at 10 µM: 87.7 ± 2.3%
[5]
  remaining activity at 10 µM: 43.2 ± 2.9%
[6]
  percent of DMSO vehicle control at 10 µM: 106%
[7]
  remaining activity at 10 µM: 82 ± 28%
[8]
  remaining activity at 10 µM: 85.7 ± 0.8%
[9]
  remaining activity at 10 µM: 57.8 ± 6.8%
[10]
  percent of DMSO vehicle control: 97.3±14.8%
[11]
  remaining activity at 10 µM: 86.6 ± 9.6%
[12]
  remaining activity at 10 µM: 132%
[13]
  percent of DMSO control binding at 10 µM: 87.4 ± 24%

## CC(=O)N1CC[C@H]2CC[C@@H](C(=O)N[C@@H](CCC(N)=O)C(=O)NC(c3ccccc3)c3ccccc3)N2C(=O)[C@@H](NC(=O)c2cc3cc(C(F)(F)P(=O)(O)O)ccc3[nH]2)C1 [SI-109]
[1]
  percent of DMSO vehicle control at 10 µM: 151%
[2]
  percent of DMSO vehicle control at 10 µM: 107%
[3]
  remaining activity at 10 µM: 119%
[4]
  remaining activity at 10 µM: 129%
[5]
  remaining activity at 10 µM: 110%
[6]
  percent of DMSO vehicle control at 10 µM: 97.3%
[7]
  remaining activity at 10 µM: 128%
[8]
  remaining activity at 10 µM: 98 ± 1.4%
[9]
  remaining activity at 10 µM: 137%
[10]
  percent of DMSO vehicle control: 121.2%
[11]
  remaining activity at 10 µM: 118%
[12]
  remaining activity at 10 µM: 130%
[13]
  percent of DMSO control binding at 10 µM: 132%

## C/C(=C\C(=O)N[C@H](C(=O)N1CCC[C@H]1C(=O)N(c1ccccc1)c1ccc(I)cc1)C(C)(C)C)c1ccc(OP(=O)(O)O)cc1 [STAT6-IN-1]
[1]
  remaining activity at 10 µM: 38.3 ± 5.9%
[2]
  Kd: 1400 ± 71 nM
  remaining activity at 10 µM: 8.5 ± 0.1%
[3]; primary screen, 10 μM
  remaining activity at 10 µM: 79.9 ± 1.6%
[4]; dose-response
  KD: No Hit
[4]; primary screen, 10 μM
  remaining activity at 10 µM: 28.7 ± 0.4%
[5]; dose-response, read-out: KD
  Kd: 3500 ± 420 nM
[5]; primary screen, 10 μM
  remaining activity at 10 µM: 24.5 ± 4%
[6]
  remaining activity at 10 µM: 48.2 ± 2.1%
[7]; dose-response, read-out: KD
  Kd: 2300 ± 550 nM
[7]; primary screen, 10 μM
  remaining activity at 10 µM: 20.7 ± 23.8%
[8]
  Kd: 2050 ± 210 nM
[8]; primary screen, 10 μM
  remaining activity at 10 µM: 1.5 ± 2.1%
[9]
  Kd: 780 ± 42 nM
[9]; primary screen, 10 μM
  remaining activity at 10 µM: 1 ± 0.1%
[10]; dose-response, read-out: KD
  Kd: 3050 ± 490 nM
[10]
  percent of DMSO vehicle control: 26.3±0.8%
[11]; primary screen, 10 μM
  remaining activity at 10 µM: 76.6 ± 7.8%
[12]; primary screen, 10 μM
  remaining activity at 10 µM: 48.2 ± 5.7%
[13]
  KD: No Hit
  remaining activity at 10 µM: 0%

## CC(C)(C)[C@H](NC(=O)/C=C/c1ccc(OP(=O)(O)O)cc1)C(=O)N1CCC[C@H]1C(=O)N(c1ccccc1)c1ccc(I)cc1 [STAT6-IN-3]
[1]
  remaining activity at 10 µM: 59.9 ± 42.5%
[2]
  Kd: 8000 ± 8700 nM
  remaining activity at 10 µM: 10.7 ± 34%
[3]; primary screen, 10 μM
  remaining activity at 10 µM: 87.5 ± 11.3%
[4]; primary screen, 10 μM
  remaining activity at 10 µM: 53.4 ± 23.5%
[5]; primary screen, 10 μM
  remaining activity at 10 µM: 79.3 ± 7.7%
[6]
  remaining activity at 10 µM: 51.8 ± 33.2%
[7]; dose-response
  KD: No Hit
[7]; primary screen, 10 μM
  remaining activity at 10 µM: 32.1 ± 40.1%
[8]
  Kd: 3800 ± 280 nM
[8]; primary screen, 10 μM
  remaining activity at 10 µM: 24.7 ± 7%
[9]
  Kd: 1020 ± 260 nM
[9]; primary screen, 10 μM
  remaining activity at 10 µM: 26.9 ± 10.2%
[10]
  percent of DMSO vehicle control: 65.2±5.7%
[11]; primary screen, 10 μM
  remaining activity at 10 µM: 123 ± 14.3%
[12]; primary screen, 10 μM
  remaining activity at 10 µM: 88.4 ± 18.2%
[13]
  KD: No Hit
  remaining activity at 10 µM: 0%

## O=C(COc1ccc2cc(C(=O)Nc3ccccc3)ccc2c1)NCc1ccc(OP(=O)(O)O)c(OP(=O)(O)O)c1 [Stafib-1]
[1]
  remaining activity at 10 µM: 65.3 ± 42.8%
[2]
  Kd: 1900 nM
  remaining activity at 10 µM: 10.8%
[3]; primary screen, 10 μM
  remaining activity at 10 µM: 95.8 ± 29.1%
[4]; primary screen, 10 μM
  remaining activity at 10 µM: 114%
[5]; primary screen, 10 μM
  remaining activity at 10 µM: 55.1 ± 11.6%
[6]
  remaining activity at 10 µM: 92.1 ± 35.5%
[7]; dose-response
  KD: No Hit
[7]; primary screen, 10 μM
  remaining activity at 10 µM: 34.3%
[8]; primary screen, 10 μM
  remaining activity at 10 µM: 78.8 ± 17.8%
[9]; primary screen, 10 μM
  remaining activity at 10 µM: 86.5%
[10]
  percent of DMSO vehicle control: 111.7±5.5%
[11]; primary screen, 10 μM
  remaining activity at 10 µM: 97 ± 11.7%
[12]; primary screen, 10 μM
  remaining activity at 10 µM: 97.2 ± 21.5%
[13]
  KD: No Hit
  remaining activity at 10 µM: 19.9%
